Values of other authors, collected in patent US20050058722A1, “Herbo-mineral formulation for refractory leukemias and lymphomas” (Sahajanand Biotech Private Limited, priority 2003, published 2005).

Columns and labels:
[1] = system: myeloid leukemia cell lines; settings: pre-clinical studies
lymphoid neoplasms = settings: pre-clinical studies

Q: What does the source list for Arsenic trioxide?
A: Apoptosis and differentiation [1]: dose-dependent induction of apoptosis and partial differentiation; Apoptosis and cell cycle (lymphoid neoplasms): induction of apoptosis and cell cycle arrest
